# Measured values as given in publication PMC12281475, “Mediator Kinase Inhibitor Selectivity and Activity in Colorectal Cancer” (ACS Chemical Biology, 2025).
# Assays:
# CDK9_CycT1 = molecular target: T1, CDK9_CycT1 (Homo sapiens, UniProt P50750); test: Radiometric protein kinase assay (33PanQinase), CDK9_CycT1; type: biochemical
# T1 construct: purchased Reaction Biology
# CDK15_CycA2 = molecular target: T2, CDK15_CycA2 (Homo sapiens, UniProt Q96Q40); test: Radiometric protein kinase assay (33PanQinase), CDK15_CycA2; type: biochemical
# T2 construct: purchased Reaction Biology
# CDK14_CycY = CDK14_CycY (Homo sapiens, UniProt O94921); test: Radiometric protein kinase assay (33PanQinase), CDK14_CycY; type: biochemical
# CDK17_p35NCK = CDK17_p35NCK (Homo sapiens, UniProt Q00537); test: Radiometric protein kinase assay (33PanQinase), CDK17_p35NCK; type: biochemical
# CDK2_CycA2 = molecular target: T3, CDK2_CycA2 (Homo sapiens, UniProt P24941); test: Radiometric protein kinase assay (33PanQinase), CDK2_CycA2; type: biochemical
# T3 construct: purchased Reaction Biology
# CDK11B 357-795_CycK = CDK11B 357-795_CycK (Homo sapiens, UniProt P21127); test: Radiometric protein kinase assay (33PanQinase), CDK11B 357-795_CycK; type: biochemical
# CDK4_CycD1 = molecular target: T4, CDK4_CycD1 (Homo sapiens, UniProt P11802); test: Radiometric protein kinase assay (33PanQinase), CDK4_CycD1; type: biochemical
# T4 construct: purchased Reaction Biology
# CDK12_CycK = molecular target: T5, CDK12_CycK (Homo sapiens, UniProt Q9NYV4); test: Radiometric protein kinase assay (33PanQinase), CDK12_CycK; type: biochemical; conditions: slope of the IC50 fit
# T5 construct: purchased Reaction Biology
# CDK3_CycC = molecular target: T6, CDK3_CycC (Homo sapiens, UniProt Q00526); test: Radiometric protein kinase assay (33PanQinase), CDK3_CycC; type: biochemical
# T6 construct: purchased Reaction Biology
# CDK13_CycK = molecular target: T7, CDK13_CycK (Homo sapiens, UniProt Q14004); test: Radiometric protein kinase assay (33PanQinase), CDK13_CycK; type: biochemical; conditions: slope of the IC50 fit
# T7 construct: purchased Reaction Biology
# CDK1_CycB1 = molecular target: T8, CDK1_CycB1 (Homo sapiens, UniProt P06493); test: Radiometric protein kinase assay (33PanQinase), CDK1_CycB1; type: biochemical
# T8 construct: purchased Reaction Biology
# CDK2_CycD1 = molecular target: T9, CDK2_CycD1 (Homo sapiens, UniProt P24941); test: Radiometric protein kinase assay (33PanQinase), CDK2_CycD1; type: biochemical
# T9 construct: purchased Reaction Biology
# CDK5_p25NCK = molecular target: T10, CDK5_p25NCK (Homo sapiens, UniProt Q00535); test: Radiometric protein kinase assay (33PanQinase), CDK5_p25NCK; type: biochemical
# T10 construct: purchased Reaction Biology
# CDK8_CycC = molecular target: T11, CDK8_CycC (Homo sapiens, UniProt P49336); test: Radiometric protein kinase assay (33PanQinase), CDK8_CycC; type: biochemical
# T11 construct: purchased Reaction Biology
# CDK18_CycY = CDK18_CycY (Homo sapiens, UniProt Q07002); test: Radiometric protein kinase assay (33PanQinase), CDK18_CycY; type: biochemical
# CDK10_CycQ = CDK10_CycQ (Homo sapiens, UniProt Q15131); test: Radiometric protein kinase assay (33PanQinase), CDK10_CycQ; type: biochemical
# CDK20_CycT1 = CDK20_CycT1 (Homo sapiens, UniProt Q8IZL9); test: Radiometric protein kinase assay (33PanQinase), CDK20_CycT1; type: biochemical
# CDK6_CycD3 = molecular target: T12, CDK6_CycD3 (Homo sapiens, UniProt Q00534); test: Radiometric protein kinase assay (33PanQinase), CDK6_CycD3; type: biochemical; conditions: slope of the IC50 fit
# T12 construct: purchased Reaction Biology
# CDK4_CycD2 = molecular target: T13, CDK4_CycD2 (Homo sapiens, UniProt P11802); test: Radiometric protein kinase assay (33PanQinase), CDK4_CycD2; type: biochemical
# T13 construct: purchased Reaction Biology
# CDK4_CycD3 = molecular target: T14, CDK4_CycD3 (Homo sapiens, UniProt P11802); test: Radiometric protein kinase assay (33PanQinase), CDK4_CycD3; type: biochemical
# T14 construct: purchased Reaction Biology
# CDK1_CycE1 = molecular target: T15, CDK1_CycE1 (Homo sapiens, UniProt P06493); test: Radiometric protein kinase assay (33PanQinase), CDK1_CycE1; type: biochemical
# T15 construct: purchased Reaction Biology
# CDK16_CycY = molecular target: T16, CDK16_CycY (Homo sapiens, UniProt Q00536); test: Radiometric protein kinase assay (33PanQinase), CDK16_CycY; type: biochemical
# T16 construct: purchased Reaction Biology
# CDK9_CycK = molecular target: T17, CDK9_CycK (Homo sapiens, UniProt P50750); test: Radiometric protein kinase assay (33PanQinase), CDK9_CycK; type: biochemical
# T17 construct: purchased Reaction Biology
# CDK19_CycC = molecular target: T18, CDK19_CycC (Homo sapiens, UniProt Q9BWU1); test: Radiometric protein kinase assay (33PanQinase), CDK19_CycC; type: biochemical
# T18 construct: purchased Reaction Biology
# CDK2_CycE1 = molecular target: T19, CDK2_CycE1 (Homo sapiens, UniProt P24941); test: Radiometric protein kinase assay (33PanQinase), CDK2_CycE1; type: biochemical
# T19 construct: purchased Reaction Biology
# CDK6_CycD1 = molecular target: T20, CDK6_CycD1 (Homo sapiens, UniProt Q00534); test: Radiometric protein kinase assay (33PanQinase), CDK6_CycD1; type: biochemical
# T20 construct: purchased Reaction Biology
# CDK1_CycA2 = molecular target: T21, CDK1_CycA2 (Homo sapiens, UniProt P06493); test: Radiometric protein kinase assay (33PanQinase), CDK1_CycA2; type: biochemical
# T21 construct: purchased Reaction Biology
# CDK5_p35NCK = molecular target: T22, CDK5_p35NCK (Homo sapiens, UniProt Q00535); test: Radiometric protein kinase assay (33PanQinase), CDK5_p35NCK; type: biochemical
# T22 construct: purchased Reaction Biology
# CDK6_CycD2 = molecular target: T23, CDK6_CycD2 (Homo sapiens, UniProt Q00534); test: Radiometric protein kinase assay (33PanQinase), CDK6_CycD2; type: biochemical
# T23 construct: purchased Reaction Biology
# CDK3_CycE1 = molecular target: T24, CDK3_CycE1 (Homo sapiens, UniProt Q00526); test: Radiometric protein kinase assay (33PanQinase), CDK3_CycE1; type: biochemical; conditions: slope of the IC50 fit
# T24 construct: purchased Reaction Biology
# CDK7_CycH_MAT1 = molecular target: T25, CDK7_CycH_MAT1 (Homo sapiens, UniProt P50613); test: Radiometric protein kinase assay (33PanQinase), CDK7_CycH_MAT1; type: biochemical
# T25 construct: purchased Reaction Biology
# CDK20_CycH = CDK20_CycH (Homo sapiens, UniProt Q8IZL9); test: Radiometric protein kinase assay (33PanQinase), CDK20_CycH; type: biochemical
# CDK8 = tested on: CDK8; design: method as in numbers not given; conditions: reporter displacement assay; previously characterized compounds, no method in this paper; ref numbers not given; read-out: IC50 for in vitro CDK8 binding; cited from earlier work
# [1] = highest assay concentration 1.00E-05 M
# [2] = highest assay concentration 1.00E-05 M, read-out: IC50
# T25 sequence (P50613 whole entry): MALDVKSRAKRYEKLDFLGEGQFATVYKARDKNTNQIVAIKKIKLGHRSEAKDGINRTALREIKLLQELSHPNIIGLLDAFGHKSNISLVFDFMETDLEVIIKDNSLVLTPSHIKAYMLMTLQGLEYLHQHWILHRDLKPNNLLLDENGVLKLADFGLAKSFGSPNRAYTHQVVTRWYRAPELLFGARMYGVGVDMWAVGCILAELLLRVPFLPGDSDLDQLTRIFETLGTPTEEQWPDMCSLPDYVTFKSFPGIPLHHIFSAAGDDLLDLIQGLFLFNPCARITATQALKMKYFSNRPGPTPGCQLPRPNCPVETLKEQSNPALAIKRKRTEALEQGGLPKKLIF
# T25 sequence (P51946 whole entry partner): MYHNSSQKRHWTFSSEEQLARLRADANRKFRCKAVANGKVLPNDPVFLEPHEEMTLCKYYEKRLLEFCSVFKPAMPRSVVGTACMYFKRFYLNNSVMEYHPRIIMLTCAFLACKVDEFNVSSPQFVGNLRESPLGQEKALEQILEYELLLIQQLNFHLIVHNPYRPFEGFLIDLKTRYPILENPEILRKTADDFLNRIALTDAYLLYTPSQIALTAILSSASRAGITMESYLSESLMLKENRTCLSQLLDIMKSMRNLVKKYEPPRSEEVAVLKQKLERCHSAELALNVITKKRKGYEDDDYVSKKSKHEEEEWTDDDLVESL
# T25 sequence (P51948 whole entry partner): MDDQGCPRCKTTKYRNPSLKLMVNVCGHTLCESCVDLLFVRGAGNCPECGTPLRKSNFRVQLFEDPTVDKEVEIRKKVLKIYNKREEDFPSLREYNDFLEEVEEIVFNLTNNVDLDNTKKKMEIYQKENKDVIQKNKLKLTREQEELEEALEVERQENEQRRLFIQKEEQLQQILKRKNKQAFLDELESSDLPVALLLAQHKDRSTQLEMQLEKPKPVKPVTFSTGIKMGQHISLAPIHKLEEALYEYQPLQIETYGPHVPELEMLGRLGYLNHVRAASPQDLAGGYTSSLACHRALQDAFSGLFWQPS
# T23 sequence (Q00534 whole entry): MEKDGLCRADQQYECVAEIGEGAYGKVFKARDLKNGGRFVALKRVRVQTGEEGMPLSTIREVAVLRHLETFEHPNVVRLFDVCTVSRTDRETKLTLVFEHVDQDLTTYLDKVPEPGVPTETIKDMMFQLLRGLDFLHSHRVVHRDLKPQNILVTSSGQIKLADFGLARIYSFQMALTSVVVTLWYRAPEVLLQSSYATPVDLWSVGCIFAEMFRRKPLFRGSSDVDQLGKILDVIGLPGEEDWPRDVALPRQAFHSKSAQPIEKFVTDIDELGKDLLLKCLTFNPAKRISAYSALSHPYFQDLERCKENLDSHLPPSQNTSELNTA
# T23 sequence (P30279 whole entry partner): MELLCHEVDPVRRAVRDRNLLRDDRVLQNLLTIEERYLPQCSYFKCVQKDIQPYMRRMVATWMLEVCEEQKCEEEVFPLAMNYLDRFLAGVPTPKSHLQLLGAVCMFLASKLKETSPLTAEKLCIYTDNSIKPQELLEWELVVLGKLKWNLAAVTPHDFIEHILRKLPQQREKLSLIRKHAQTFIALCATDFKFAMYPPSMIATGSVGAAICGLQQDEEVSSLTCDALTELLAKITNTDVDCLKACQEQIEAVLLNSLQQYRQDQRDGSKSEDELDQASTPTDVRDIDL
# Sequence of CDK20_CycT1 (Q8IZL9 whole entry): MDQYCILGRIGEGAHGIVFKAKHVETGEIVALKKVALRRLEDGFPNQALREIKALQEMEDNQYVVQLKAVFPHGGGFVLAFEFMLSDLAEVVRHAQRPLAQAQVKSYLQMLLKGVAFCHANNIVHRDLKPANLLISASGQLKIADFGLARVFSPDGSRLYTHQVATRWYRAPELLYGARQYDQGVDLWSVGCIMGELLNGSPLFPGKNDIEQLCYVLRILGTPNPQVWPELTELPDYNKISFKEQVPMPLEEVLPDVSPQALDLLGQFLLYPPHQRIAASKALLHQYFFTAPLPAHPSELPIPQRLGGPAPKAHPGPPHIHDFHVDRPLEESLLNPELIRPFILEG
# Sequence of CDK20_CycH (Q8IZL9 whole entry): as above
# Sequence of CDK18_CycY (Q07002 whole entry): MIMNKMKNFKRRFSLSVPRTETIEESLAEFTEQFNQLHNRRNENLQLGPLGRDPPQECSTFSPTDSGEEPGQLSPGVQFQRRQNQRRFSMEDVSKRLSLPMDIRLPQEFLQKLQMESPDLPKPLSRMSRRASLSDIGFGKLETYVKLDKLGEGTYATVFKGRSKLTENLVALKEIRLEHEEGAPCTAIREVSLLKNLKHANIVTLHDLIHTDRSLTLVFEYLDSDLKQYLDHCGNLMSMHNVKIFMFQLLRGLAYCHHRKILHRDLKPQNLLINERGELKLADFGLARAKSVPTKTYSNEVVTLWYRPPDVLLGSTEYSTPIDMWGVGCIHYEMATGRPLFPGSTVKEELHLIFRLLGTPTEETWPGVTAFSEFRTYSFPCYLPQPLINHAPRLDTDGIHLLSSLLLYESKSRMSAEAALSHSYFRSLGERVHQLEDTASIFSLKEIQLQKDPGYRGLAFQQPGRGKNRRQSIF
# Sequence of CDK18_CycY (Q8ND76 whole entry partner): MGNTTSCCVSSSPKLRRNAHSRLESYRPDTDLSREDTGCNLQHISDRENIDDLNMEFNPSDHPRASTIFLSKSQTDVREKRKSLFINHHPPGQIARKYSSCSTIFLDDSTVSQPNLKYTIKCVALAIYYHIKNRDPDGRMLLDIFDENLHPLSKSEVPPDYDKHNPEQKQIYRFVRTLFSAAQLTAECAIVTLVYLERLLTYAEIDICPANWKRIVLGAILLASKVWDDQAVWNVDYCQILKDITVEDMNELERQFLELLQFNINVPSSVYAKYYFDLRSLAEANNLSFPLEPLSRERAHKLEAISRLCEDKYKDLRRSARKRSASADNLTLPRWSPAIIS
# T11 sequence (P49336 whole entry): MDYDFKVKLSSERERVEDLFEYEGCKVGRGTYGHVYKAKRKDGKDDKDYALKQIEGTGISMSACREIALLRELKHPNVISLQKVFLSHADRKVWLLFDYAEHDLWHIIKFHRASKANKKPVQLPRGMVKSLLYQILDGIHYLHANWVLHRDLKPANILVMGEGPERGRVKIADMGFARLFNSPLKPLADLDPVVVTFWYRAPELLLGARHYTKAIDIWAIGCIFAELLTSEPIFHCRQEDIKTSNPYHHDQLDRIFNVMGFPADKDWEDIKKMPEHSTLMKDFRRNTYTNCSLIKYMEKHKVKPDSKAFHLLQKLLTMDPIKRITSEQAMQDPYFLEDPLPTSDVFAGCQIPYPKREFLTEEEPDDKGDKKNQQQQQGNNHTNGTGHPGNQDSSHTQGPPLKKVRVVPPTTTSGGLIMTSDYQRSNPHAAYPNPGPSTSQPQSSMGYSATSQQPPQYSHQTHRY
# T11 sequence (P24863 whole entry partner): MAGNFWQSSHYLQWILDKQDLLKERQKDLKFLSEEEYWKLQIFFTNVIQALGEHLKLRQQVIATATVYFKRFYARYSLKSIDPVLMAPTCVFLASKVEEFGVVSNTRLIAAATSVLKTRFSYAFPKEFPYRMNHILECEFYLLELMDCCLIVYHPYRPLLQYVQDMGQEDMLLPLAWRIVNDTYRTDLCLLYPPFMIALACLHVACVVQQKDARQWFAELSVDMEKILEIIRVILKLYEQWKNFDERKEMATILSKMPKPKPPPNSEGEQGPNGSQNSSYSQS
# T18 sequence (Q9BWU1 whole entry): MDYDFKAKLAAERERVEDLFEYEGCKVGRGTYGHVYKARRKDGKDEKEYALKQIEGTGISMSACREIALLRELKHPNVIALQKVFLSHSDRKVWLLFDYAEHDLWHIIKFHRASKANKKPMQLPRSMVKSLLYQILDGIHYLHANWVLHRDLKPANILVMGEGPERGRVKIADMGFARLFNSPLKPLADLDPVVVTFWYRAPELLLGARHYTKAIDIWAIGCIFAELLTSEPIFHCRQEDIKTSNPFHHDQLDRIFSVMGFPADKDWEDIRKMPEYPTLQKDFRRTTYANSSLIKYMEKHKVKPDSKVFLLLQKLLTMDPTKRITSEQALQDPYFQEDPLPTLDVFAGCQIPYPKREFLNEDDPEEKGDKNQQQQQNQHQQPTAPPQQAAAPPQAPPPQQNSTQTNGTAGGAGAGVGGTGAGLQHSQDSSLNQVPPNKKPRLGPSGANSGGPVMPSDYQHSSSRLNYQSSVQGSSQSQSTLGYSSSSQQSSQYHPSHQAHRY
# T18 sequence (P24863 whole entry partner): as the sequence (P24863 whole entry partner) above
# T8 sequence (P06493 whole entry): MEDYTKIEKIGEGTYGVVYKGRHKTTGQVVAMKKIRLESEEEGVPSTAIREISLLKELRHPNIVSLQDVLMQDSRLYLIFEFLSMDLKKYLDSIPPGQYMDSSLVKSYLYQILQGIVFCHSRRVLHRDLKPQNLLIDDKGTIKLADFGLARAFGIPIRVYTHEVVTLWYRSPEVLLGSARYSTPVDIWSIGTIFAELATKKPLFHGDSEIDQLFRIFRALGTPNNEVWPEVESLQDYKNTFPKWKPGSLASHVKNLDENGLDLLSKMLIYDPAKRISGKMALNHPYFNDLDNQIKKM
# T8 sequence (P14635 whole entry partner): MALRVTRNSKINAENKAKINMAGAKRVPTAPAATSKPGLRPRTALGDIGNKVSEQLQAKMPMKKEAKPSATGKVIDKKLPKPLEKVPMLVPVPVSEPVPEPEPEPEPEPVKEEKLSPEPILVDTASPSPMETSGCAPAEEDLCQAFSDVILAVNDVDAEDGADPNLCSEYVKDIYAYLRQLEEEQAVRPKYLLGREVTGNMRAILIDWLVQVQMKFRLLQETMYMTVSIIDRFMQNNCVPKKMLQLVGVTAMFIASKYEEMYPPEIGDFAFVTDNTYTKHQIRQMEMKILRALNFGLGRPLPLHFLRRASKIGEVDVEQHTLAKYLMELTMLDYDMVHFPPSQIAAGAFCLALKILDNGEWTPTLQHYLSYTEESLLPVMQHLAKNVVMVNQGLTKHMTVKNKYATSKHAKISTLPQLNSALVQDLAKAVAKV
structure (smiles),measurement,setting,value
Cn1cc(-c2ccc(-c3cncc(Cl)c3N3CCC4(CCNC4=O)CC3)cc2)cn1 [CCT251545],IC50,CDK9_CycT1; [1],6.07 µM
same,Hill Slope,CDK9_CycT1; slope of the IC50 fit,-0.94
same,IC50,CDK15_CycA2; [1],> 10 µM
same,Hill Slope,CDK15_CycA2; slope of the IC50 fit,-0.34
same,IC50,CDK14_CycY; [1],> 10 µM
same,Hill Slope,CDK14_CycY; slope of the IC50 fit,-0.82
same,IC50,CDK17_p35NCK; [1],> 10 µM
same,Hill Slope,CDK17_p35NCK; slope of the IC50 fit,-0.17
same,IC50,CDK2_CycA2; [2],> 10 µM
same,Hill Slope,CDK2_CycA2; slope of the IC50 fit,-0.46
same,IC50,CDK11B 357-795_CycK; [1],> 10 µM
same,Hill Slope,CDK11B 357-795_CycK; slope of the IC50 fit,-8.69
same,IC50,CDK4_CycD1; [1],> 10 µM
same,Hill Slope,CDK4_CycD1; slope of the IC50 fit,-0.31
same,Hill Slope,CDK12_CycK,-0.07
same,IC50,CDK3_CycC,> 10 µM
same,Hill Slope,CDK3_CycC; slope of the IC50 fit,-0.47
same,Hill Slope,CDK13_CycK,0.15
same,IC50,CDK1_CycB1; [1],> 10 µM
same,Hill Slope,CDK1_CycB1; slope of the IC50 fit,-0.74
same,IC50,CDK2_CycD1; [2],> 10 µM
same,Hill Slope,CDK2_CycD1; slope of the IC50 fit,-0.29
same,IC50,CDK5_p25NCK; [1],> 10 µM
same,Hill Slope,CDK5_p25NCK; slope of the IC50 fit,-0.59
same,IC50,CDK8_CycC,0.0841 µM
same,Hill Slope,CDK8_CycC; slope of the IC50 fit,-0.56
same,IC50,CDK18_CycY; [1],> 10 µM
same,Hill Slope,CDK18_CycY; slope of the IC50 fit,-0.5
same,IC50,CDK10_CycQ; [1],> 10 µM
same,Hill Slope,CDK10_CycQ; slope of the IC50 fit,-0.51
same,IC50,CDK20_CycT1; [1],> 10 µM
same,Hill Slope,CDK20_CycT1; slope of the IC50 fit,-0.39
same,Hill Slope,CDK6_CycD3,-0.2
same,IC50,CDK4_CycD2; [1],> 10 µM
same,Hill Slope,CDK4_CycD2; slope of the IC50 fit,-0.3
same,IC50,CDK4_CycD3; [1],> 10 µM
same,Hill Slope,CDK4_CycD3; slope of the IC50 fit,-0.27
same,IC50,CDK1_CycE1; [2],> 10 µM
same,Hill Slope,CDK1_CycE1; slope of the IC50 fit,-0.72
same,IC50,CDK16_CycY; [1],> 10 µM
same,Hill Slope,CDK16_CycY; slope of the IC50 fit,-1.1
same,IC50,CDK9_CycK; [1],3.81 µM
same,Hill Slope,CDK9_CycK; slope of the IC50 fit,-0.78
same,IC50,CDK19_CycC,0.277 µM
same,Hill Slope,CDK19_CycC; slope of the IC50 fit,-0.53
same,IC50,CDK2_CycE1; [2],> 10 µM
same,Hill Slope,CDK2_CycE1; slope of the IC50 fit,-0.5
same,IC50,CDK6_CycD1; [1],> 10 µM
same,Hill Slope,CDK6_CycD1; slope of the IC50 fit,-1.25
same,IC50,CDK1_CycA2; [2],> 10 µM
same,Hill Slope,CDK1_CycA2; slope of the IC50 fit,-0.78
same,IC50,CDK5_p35NCK; [1],> 10 µM
same,Hill Slope,CDK5_p35NCK; slope of the IC50 fit,-1.62
same,IC50,CDK6_CycD2; [1],> 10 µM
same,Hill Slope,CDK6_CycD2; slope of the IC50 fit,-0.64
same,Hill Slope,CDK3_CycE1,-0.16
same,IC50,CDK7_CycH_MAT1; [1],> 10 µM
same,Hill Slope,CDK7_CycH_MAT1; slope of the IC50 fit,-0.59
same,IC50,CDK20_CycH; [1],> 10 µM
same,Hill Slope,CDK20_CycH; slope of the IC50 fit,-0.44
same,IC50,CDK8,0.005 µM
